Assay [1] concerns Dermatophagoides pteronyssinus. The assay can be described thus: Inhibitory activity against Cysteinyl protease was evaluated by method A in experiment 2.
Assay [2] relates to Dermatophagoides pteronyssinus. The assay can be described thus: Inhibitory activity against Cysteinyl protease was evaluated by method A in experiment 1.
The subject of assay [3] is Dermatophagoides pteronyssinus. The assay can be described thus: Inhibitory activity against Cysteinyl protease was evaluated by method A.
The test system of assay [4] is Dermatophagoides pteronyssinus. Briefly: Inhibitory activity against Cysteinyl protease was evaluated by method B.
Assay [5] in a line: Inhibitory activity against Cysteinyl protease was evaluated. Details: species or system Dermatophagoides pteronyssinus.
Assay [6] can be described thus: Reversible Inhibitory activity on Cysteinyl protease was evaluated. More on the design: species or system Dermatophagoides pteronyssinus.

Each structure is given as a SMILES string. Where a SMILES comes first, the peptide text is derived from it. The star is where a group is joined. Boc = CC(C)(C)OC(=O)*

One may read the Ki as a dissociation constant, usually derived from enzyme kinetics or from competition with a known ligand.

Take `CC(C)C[C@@H](/C=C/S(C)(=O)=O)NC(=O)[C@H](C)NC(=O)[C@@H](NC(=O)OC(C)(C)C)C(C)C`: the k obs / 1 in assay [1] is 11000 M⁻¹ s⁻¹; in assay [2] it was 1100 M⁻¹ s⁻¹.

`CCOC(=O)/C=C/[C@H](CC(C)C)NC(=O)[C@H](C)NC(=O)[C@@H](N)C(C)C` came in with a k obs / 1 in assay [3] below 100 M⁻¹ s⁻¹. Regarding `CC(C)C[C@@H](/C=C/S(=O)(=O)Cc1ccccc1)NC(=O)[C@H](C)NC(=O)[C@@H](NC(=O)OC(C)(C)C)C(C)C`, the k obs / 1 turned out to be 350000 M⁻¹ s⁻¹ in assay [1] and 2300 M⁻¹ s⁻¹ in assay [2]. For the compound `CCCC[C@H](NC(=O)[C@H](C)NC(=O)[C@@H](NC(=O)c1ccccc1)C(C)C)C(=O)COC(=O)c1c(C(F)(F)F)cccc1C(F)(F)F`, the k obs / 1 in assay [1] is 2.2e+06 M⁻¹ s⁻¹; in assay [2], 1e+06 M⁻¹ s⁻¹; in assay [4] it was 1.3e+07 M⁻¹ s⁻¹. Consider `CCOC(=O)/C=C/[C@H](CC(C)C)NC(=O)[C@H](C)NC(=O)[C@@H](NC(=O)OC(C)(C)C)C(C)C`, for which the k obs / 1 in assay [1] worked out at 7900 M⁻¹ s⁻¹; in assay [2] it was 1700 M⁻¹ s⁻¹.

In assay [5], `CC(C)C[C@@H](C=O)NC(=O)[C@H](C)NC(=O)[C@@H](NC(=O)OC(C)(C)C)C(C)C` (Boc-Val-Ala-Leu-aldehyde) came in with a Ki of 14 nM. `CCOC(=O)/C=C/[C@H](CC(C)C)NC(=O)[C@H](C)NC(=O)[C@@H](NC(=O)c1ccccc1)C(C)C`: the k obs / 1 in assay [1] was found to be 16000 M⁻¹ s⁻¹; in assay [2] it was 4100 M⁻¹ s⁻¹. In assay [4], `CCCC[C@H](NC(=O)[C@H](C)NC(=O)[C@@H](NC(=O)c1ccccc1)C(C)C)C(=O)COC(=O)c1c(Cl)cccc1Cl` returned a k obs / 1 of 6.8e+07 M⁻¹ s⁻¹. For the compound `CCCC[C@H](NC(=O)[C@H](C)NC(=O)[C@@H](NC(=O)c1ccccc1)C(C)C)C(=O)COC(=O)c1ccccc1`, the results for the k obs / 1 in assay [1] and in assay [2] were 50000 M⁻¹ s⁻¹ and 370000 M⁻¹ s⁻¹, respectively. On to `CC(C)C[C@@H](/C=C/S(=O)(=O)c1ccccc1)NC(=O)[C@H](C)NC(=O)[C@@H](NC(=O)OC(C)(C)C)C(C)C`, for which the k obs / 1 in assay [1] was 25000 M⁻¹ s⁻¹; in assay [2], 6400 M⁻¹ s⁻¹. `CCOC(=O)/C=C/[C@H](CC(C)C)NC(=O)[C@H](C)NC(=O)[C@@H](NC(C)=O)C(C)C`: in assay [3], the k obs / 1 is below 100 M⁻¹ s⁻¹. As to `CCCC[C@H](NC(=O)[C@H](C)NC(=O)[C@@H](NC(=O)c1ccccc1)C(C)C)C(=O)COC(=O)c1c(C)cccc1C`, the k obs / 1 in assay [4] was 1.6e+07 M⁻¹ s⁻¹. Take `CCCC[C@H](NC(=O)[C@H](C)NC(=O)[C@@H](NC(=O)c1ccccc1)C(C)C)C(=O)CBr`: affinity in assay [6] was put at a Ki of 1.6 nM.

Source of the values: ChEMBL document CHEMBL1130812, “The design and synthesis of inhibitors of the cysteinyl protease, Der p I” (Bioorg Med Chem Lett, 1998).
